We go through 15 molecules from ChEMBL document CHEMBL3351644, “Tryptophanol-derived oxazolopiperidone lactams: identification of a hit compound as NMDA receptor antagonist” (Bioorg Med Chem Lett, 2014).

Structures are written as SMILES.

In general, IC50 refers to the concentration that gives 50% inhibition.

For experiment [1], the target named is Glutamate NMDA receptor. Briefly: Antagonist activity at NMDA receptor in Wistar rat cerebellar granule neurons assessed as inhibition of NMDA-induced intracellular calcium by Fura-2 fluorescence assay. It counts as cell-based. (A change in cytosolic calcium serves as a functional read-out for many receptors and channels.)
Experiment [2] has as its target Glutamate NMDA receptor (Rattus norvegicus) (UniProt P35439+Q00959+Q00960+Q00961+Q62645+Q8VHN2+Q9R1M7). The experiment is described as follows: Ratio of amantadine IC50 to compound IC50 for NMDA receptor in Wistar rat cerebellar granule neurons assessed as inhibition of NMDA-induced intracellular calcium by Fura-2 fluorescence assay. It counts as cell-based.

Take `O=C1CCC[C@@H]2OC[C@H](Cc3c[nH]c4ccccc34)N12`: the IC50 in experiment [1] was found to be 305 µM.
The same measure, in the same setting: under `CC[C@@H]1CCC(=O)N2[C@H](Cc3c[nH]c4ccccc34)CO[C@@H]12` stands above 450 µM; under `COC(=O)C[C@H]1CC(=O)N2[C@H](Cc3c[nH]c4ccccc34)CO[C@H]2C1`, above 450 µM; under `CC[C@H]1CCC(=O)N2[C@@H](Cc3c[nH]c4ccccc34)CO[C@H]12`, above 450 µM.
Still for that read-out and setting: with `COC(=O)C[C@@H]1CC(=O)N2[C@@H](Cc3c[nH]c4ccccc34)CO[C@@H]2C1` the figure was above 450 µM; with `O=C1CC[C@@H]2OC[C@@H](Cc3c[nH]c4ccccc34)N12`, 341 µM; with `O=C1CCC[C@H]2OC[C@H](Cc3c[nH]c4ccccc34)N12`, 429 µM.
Same read-out and setting: under `COC(=O)C[C@H]1CC(=O)N2[C@@H](Cc3c[nH]c4ccccc34)CO[C@@H]2C1` stands above 450 µM; under `Cn1cc(C[C@@H]2CO[C@H]3CCCC(=O)N23)c2ccccc21`, above 450 µM.
Consider `Cc1ccc(S(=O)(=O)n2cc(C[C@@H]3CO[C@H]4CCCC(=O)N34)c3ccccc32)cc1`, for which the IC50 in experiment [1] was above 450 µM.
On the same count and under the same terms, with `COC(=O)C[C@@H]1CC(=O)N2[C@H](Cc3c[nH]c4ccccc34)CO[C@@H]2C1` the figure was above 450 µM; with `O=C1CCC[C@H]2OC[C@@H](Cc3c[nH]c4ccccc34)N12`, above 450 µM; with `CC[C@@H]1CCC(=O)N2[C@@H](Cc3c[nH]c4ccccc34)CO[C@@H]12`, above 450 µM.
The same measure, in the same setting: under `CC[C@H]1CCC(=O)N2[C@H](Cc3c[nH]c4ccccc34)CO[C@H]12` stands above 450 µM.
`O=C1CCC[C@@H]2OC[C@@H](Cc3c[nH]c4ccccc34)N12`: in experiment [1], the IC50 was determined as 63.4 µM. Besides, in experiment [2], the Ratio IC50 is 1.5.
